We go through 2 compounds from PMC5479551, “Development of a range of fluorescent reagentless biosensors for ATP, based on malonyl-coenzyme A synthetase” (PLoS ONE, 2017).

As a reminder, the Kd is the constant that tells how readily two partners part at equilibrium. As usually defined, the Km is the concentration of substrate that gives half-maximal velocity.

One assay has as its target T1, S170A Rho-MatB (Rhodopseudomonas palustris, UniProt Q6ND88, C106A/K488A/Q457C/R286C/S170A).
T1 construct: His6-tag, Rho-MatB background, two tetramethylrhodamines (5-IATR)
In words: Fluorescence titration (excitation 553 nm, emission 571 nm) of 0.5 µM fully purified Rho-MatB with ADP in 50 mM Hepes pH 7.0, 100 mM NaCl, 10 mM MgCl2, 0.3 mg/ml BSA, 20°C, quadratic binding fit. An excerpt: (§1) Data from titrations to measure nucleotide binding were corrected for dilution and analyzed with a quadratic binding curve using Grafit software: F=Fmin+(Fmax−Fmin)×(Kd+L+P−(Kd+L+P)^2−4×P×L)/2×P where P and L are the total concentrations of protein and ligand, respectively, Kd is the dissociation constant, and Fmin and Fmax are the fluorescence intensities of the free and ligand- bound protein, respectively.
(§2) Fig 2 Nucleotide affinity for variants of Rho-MatB. Titration of ATP (circles) and ADP (triangles) to (A) 0.5 µM Rho-MatB T167A, (B) 0.5 μM Rho-MatB T303A; (C) 0.5 μM Rho-MatB S170A. Measurements are shown for one representative experiment and were in 50 mM Hepes pH 7.0, 100 mM NaCl, 10 mM MgCl2, 0.3 mg ml^-1 bovine serum albumin at 20°C. Excitation was at 553 nm, emission at 571 nm. The dissociation constants and fluorescence ratios were obtained using a quadratic binding equation (see Methods) and are listed in Table 2. The drop lines are to indicate the dissociation constants. Data are normalized to the intensity in the absence of nucleotide.
(§3) The affinity for ATP and ADP was determined by measuring the fluorescence at different concentrations of the nucleotide (Fig 2A and 2B). Both variants show similar fluorescent changes with ATP compared to the parent Rho-MatB, but the dissociation constants (Kd) are much higher (Table 2). In contrast, the affinity of ADP was much less affected by the mutations, remaining very weak (Table 2). The change in ATP affinity presumably reflects the importance of hydrogen-bonding interactions with the triphosphate, decreased by mutating to alanine.

The next assay has as its target T2, Parent (Rho-MatB) (Rhodopseudomonas palustris, UniProt Q6ND88, C106A/K488A/Q457C/R286C).
T2 construct: N-terminal His6-tag, expressed in E. coli; two tetramethylrhodamines (5-IATR) on introduced cysteines
The assay is described as above.
Text: as §1, §2, §3

The target in another assay is T3, T303A Rho-MatB (Rhodopseudomonas palustris, UniProt Q6ND88, C106A/K488A/Q457C/R286C/T303A).
T3 construct: His6-tag, Rho-MatB background, two tetramethylrhodamines (5-IATR)
T3 sequence (Q6ND88 entry or part of it C106A/R286C/T303A/Q457C/K488A): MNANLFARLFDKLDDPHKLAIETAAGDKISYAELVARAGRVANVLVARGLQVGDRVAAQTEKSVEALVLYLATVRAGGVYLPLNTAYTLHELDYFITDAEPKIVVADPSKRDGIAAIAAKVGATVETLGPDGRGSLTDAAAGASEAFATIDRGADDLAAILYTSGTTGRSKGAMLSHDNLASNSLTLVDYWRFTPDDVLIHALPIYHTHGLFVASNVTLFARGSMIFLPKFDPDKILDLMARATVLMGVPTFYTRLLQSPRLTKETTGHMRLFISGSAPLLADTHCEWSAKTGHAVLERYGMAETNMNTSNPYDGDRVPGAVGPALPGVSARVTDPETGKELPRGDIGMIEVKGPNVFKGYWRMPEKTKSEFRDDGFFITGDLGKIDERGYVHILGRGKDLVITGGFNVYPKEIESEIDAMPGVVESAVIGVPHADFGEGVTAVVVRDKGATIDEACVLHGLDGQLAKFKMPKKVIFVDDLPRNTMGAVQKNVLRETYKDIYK
The description is as above.
Text: as §1, §2, §3

The target in the next assay is T4, T167A Rho-MatB (Rhodopseudomonas palustris, UniProt Q6ND88, C106A/K488A/Q457C/R286C/T167A).
T4 construct: His6-tag, Rho-MatB background, two tetramethylrhodamines (5-IATR)
T4 sequence (Q6ND88 entry or part of it C106A/T167A/R286C/Q457C/K488A): as the sequence (Q6ND88 entry or part of it C106A/R286C/T303A/Q457C/K488A) above, with T167A, A303T counted along it
Described as above.
Text: as §1, §2, §3

Another assay addresses T5, pyruvate kinase (Oryctolagus cuniculus, UniProt P11974).
T5 construct: pyruvate kinase (rabbit muscle from Sigma); purchased Sigma; host or cells: rabbit muscle (tissue-derived)
In words: Steady-state pyruvate kinase assay using T303A variant ATP biosensor. The assay is classed as biochemical, rabbit. The following applies: 50 mM HEPES pH 7.2, 100 mM KCl, 10 mM MgCl2, 25°C; 500 μM phosphoenolpyruvate; 1 μM T303A rho-MatB as ATP sensor; read-out: Km for ADP. Here is the method:
Steady-state activity measurements of pyruvate kinase (rabbit muscle from Sigma) were obtained using fluorescence on a CLARIOstar microplate reader (BMG Labtech). Assays were set up in 100 μl or 40 μl using 96-well using 384-well polystyrene microplates (low-protein-binding, Corning, USA) respectively.
We show one type of steady-state assay using a weak-binding variant, namely T303A, and a well understood enzyme system. This variant was used to measure the Km for ADP with pyruvate kinase (Fig 7). This measurement would not have been possible with the original reagent, as it requires measurements with hundreds of micromolar ADP. The assay measured formation of ATP as a function of time and made use of calibrations of the fluorescence signal at 0 and 500 μM ADP.
Fig 7 Test assay, measurement of the Km of ADP with pyruvate kinase using T303A variant ATP biosensor. The assay was run in multiwell format in 50 mM HEPES buffer pH 7.2, 100 mM KCl, 10 mM MgCl2, 0.3 mg ml^-1 bovine serum albumin at 25°C. The assay components were 500 μM phosphoenolpyruvate, 0.005 unit ml^-1 pyruvate kinase, 1 μM T303A rho-MatB and the micromolar concentrations of ADP shown on the inset panel for an illustrative set of traces. The data are shown as ATP production rates, using calibrations done at 0–20 μM ATP at 0 μM ADP and with ADP to make 500 μM total nucleotide concentration. […]

T2 sequence (Q6ND88 entry or part of it C106A/R286C/Q457C/K488A): as the sequence (Q6ND88 entry or part of it C106A/R286C/T303A/Q457C/K488A) above, with A303T counted along it
T5 sequence (P11974 whole entry): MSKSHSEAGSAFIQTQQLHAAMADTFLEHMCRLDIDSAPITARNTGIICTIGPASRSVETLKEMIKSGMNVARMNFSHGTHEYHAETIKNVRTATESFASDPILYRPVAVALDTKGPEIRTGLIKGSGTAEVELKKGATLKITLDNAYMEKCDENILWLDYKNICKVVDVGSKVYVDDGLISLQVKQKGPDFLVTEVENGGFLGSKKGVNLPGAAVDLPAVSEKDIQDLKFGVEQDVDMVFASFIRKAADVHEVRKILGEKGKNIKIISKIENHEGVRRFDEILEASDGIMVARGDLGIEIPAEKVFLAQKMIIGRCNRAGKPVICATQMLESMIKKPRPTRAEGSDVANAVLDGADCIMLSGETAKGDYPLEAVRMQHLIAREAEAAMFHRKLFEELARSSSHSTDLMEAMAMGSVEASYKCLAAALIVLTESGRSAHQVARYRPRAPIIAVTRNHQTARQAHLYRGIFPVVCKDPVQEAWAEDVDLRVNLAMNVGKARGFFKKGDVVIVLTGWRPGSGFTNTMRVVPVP
T1 sequence (Q6ND88 entry or part of it C106A/S170A/R286C/Q457C/K488A): as the sequence (Q6ND88 entry or part of it C106A/R286C/T303A/Q457C/K488A) above, with S170A, A303T counted along it

Consider `Nc1ncnc2c1ncn2[C@@H]1O[C@H](COP(=O)(O)OP(=O)(O)O)[C@@H](O)[C@H]1O` [ADP, adenosine 5'-diphosphate], for which the dissociation constant Kd at S170A Rho-MatB came out at 887 ± 25 µM; at Parent (Rho-MatB), 428 ± 50 µM; on T303A Rho-MatB it was 1840 ± 114 µM; on T167A Rho-MatB, 900 ± 28 µM.

For the compound `Nc1ncnc2c1ncn2[C@@H]1O[C@H](COP(=O)(O)OP(=O)(O)O)[C@@H](O)[C@H]1O` [ADP], the Michaelis-Menten constant (Km) at pyruvate kinase was determined as 56 ± 4 µM.
